Measured values taken from patent publication US20120107323A1, “KINASE PROTEIN BINDING INHIBITORS” (University of Florida, priority 2009, published 2012).

What was measured:
[1] = tested on: SK-MEL-28 melanoma cells; assay: Cell viability (MTT), SK-MEL-28; format: cell-based; details: Homo sapiens; SK-MEL-28, 72 hours; read-out: IC50 of INT2-31, cell viability
Method: (§1) Cell viability (MTT) and CFSE Proliferation assay: Cells were plated in 96-well plates and let adhere overnight. After cell treatment, cell viability was measured by 3-(4,5-dimethylthiazol-2-yl)-2,5-diphenyl tetrazolium bromide (MTT) assay (CellTiter 96® Aqueous, Promega, Madison, Wis.).
(§2) Cell viability and detachment assays: After cells were treated with siRNA transfection, cell viability was measured by 3-(4,5-dimethylthiazol2-yl)-2,5-diphenyl tetrazolium bromide (MTT) assay (CellTiter 96® AQueous, Promega, Madison, Wis.). Briefly, 20 μl of the tetrazolium compound was added to each well. The cells were then incubated at 37° C. for 1 h. The plate was read at 490 nm with a plate reader to determine the viability. In detachment assays, detached and attached cells were harvested separately and counted in a hemocytometer. The percentage of detachment was calculated by dividing the number of detached cells by the total number of cells. Apoptosis assays: After treatment, attached and detached cells were collected, counted and prepared for terminal uridine deoxynucleotidyl transferase (TUNEL) assay by utilizing an APO-BRDU kit (BD Pharmingen, San Diego, Calif.) according to the manufacturer's instructions. Stained cells were analyzed with a fluorescence-activated cell sorting-Calibur flow cytometer (BD Biosciences). […] Apoptotic cells were also analyzed by Hoechst staining. […]

[2] = tested on: melanoma tumor; assay: Melanoma tumor in nude mice, 5 days of treatment; format: in vivo; details: 15 mg/kg intraperitoneal for 5 days, p<0.05
[3] = target: IGF-1R (Homo sapiens, UniProt P08069); assay: Kinase profiler screening, IGF-1R; format: biochemical; details: 1 μM compound, 10 μM ATP
Method: Kinase Profiler Screening: Kinase specificity screening was performed with Invitrogen's SelectScreen® Kinase Profiling Services http://www.invitrogen.com/site/us/en/home/Products-and-Services/Services/Discoverv-Research/SelectScreen-Profiling-Service/SelectScreen-Kinase-Profiling-Service.html. The screening was performed with 1 μM compound, INT2-31, 10 μM ATP, and kinase substrates against ten recombinant kinases according to Z′-LYTET™ Kinase Assay. For PI3 kinase activity, 100 μM ATP, and kinase substrate were utilized with the Invitrogen Adapta® Universal Kinase Assay protocol. Tumor Growth in Nude Mice in vivo: Six week old athymic, female nude mice were purchased from Harlan Laboratory. The mice were maintained in the animal facility, and all experiments were performed in compliance with NIH animal-use guidelines and under an IACUC approved protocol. Melanoma cells were injected, 5×10^6 cells, subcutaneously. When the tumor size reached 100 mm^3, the INT2-31 was introduced by intraperitoneal injection at a dose of 15 mg/kg daily for 21 days. Tumor diameters were measured with calipers, and tumor volume in mm^3 was calculated using the formula [(width)^2×length]/2. At the end of experiment, tumor weight and volume were determined.

[4] = tested on: MCF7 breast cancer cells; assay: Cell viability (MTT), MCF7; format: cell-based; details: Homo sapiens; MCF7, 72 hours; read-out: IC50 of INT2-31, cell viability
Method: as §1, §2

[5] = tested on: C8161 melanoma cells; assay: Apoptosis by Hoechst staining; format: cell-based, human; details: 5 μM, 72 h
Method: Detachment assay: Cells were plated with and without compound for 24, 48, and 72 h, and detached and attached cells were counted in a hemocytometer. The percent of detachment was calculated by dividing the number of detached cells by the total number of cells and experiments performed in triplicate. Apoptosis assays: After treatment, attached and detached cells were collected, counted and prepared for terminal uridine deoxynucleotidyl transferase (TUNEL) assay by utilizing an APO-BRDU kit (BD Pharmingen, San Diego, Calif.) and cells analyzed with a FACSCalibur cytometer (Becton Dickinson, San Jose, Calif.). In addition, apoptotic cells were analyzed with Hoechst 33342 staining (1 μg/ml). The percent of apoptotic cells was calculated as the ratio of apoptotic cells to total number of cells.
In addition, apoptotic cells were also analyzed by Hoechst staining. To the prepared cells as described above, Hoechst 33342 (1 μg/ml) was added, incubated in the dark room temperature for 10 minutes, and the specimens were mounted on glass coverslips. The slides were viewed under the Zeiss microscope for apoptotic nuclei. The percent of apoptotic cells was calculated as the ratio of apoptotic cells to total number of cells. Over 300 cells per sample were analyzed.

[6] = tested on: AsPC1 pancreatic cancer cells; assay: Cell viability (MTT), AsPC1; format: cell-based; details: Homo sapiens; AsPC1, 72 hours; read-out: IC50 of INT2-31, cell viability
Method: as §1, §2

[7] = tested on: BT474 breast cancer cells; assay: Cell viability (MTT), BT474; format: cell-based; details: Homo sapiens, BT-474; BT474, 72 hours; read-out: IC50 of INT2-31, cell viability
Method: as §1, §2

Chain of IGF-1R (P08069 31-1367): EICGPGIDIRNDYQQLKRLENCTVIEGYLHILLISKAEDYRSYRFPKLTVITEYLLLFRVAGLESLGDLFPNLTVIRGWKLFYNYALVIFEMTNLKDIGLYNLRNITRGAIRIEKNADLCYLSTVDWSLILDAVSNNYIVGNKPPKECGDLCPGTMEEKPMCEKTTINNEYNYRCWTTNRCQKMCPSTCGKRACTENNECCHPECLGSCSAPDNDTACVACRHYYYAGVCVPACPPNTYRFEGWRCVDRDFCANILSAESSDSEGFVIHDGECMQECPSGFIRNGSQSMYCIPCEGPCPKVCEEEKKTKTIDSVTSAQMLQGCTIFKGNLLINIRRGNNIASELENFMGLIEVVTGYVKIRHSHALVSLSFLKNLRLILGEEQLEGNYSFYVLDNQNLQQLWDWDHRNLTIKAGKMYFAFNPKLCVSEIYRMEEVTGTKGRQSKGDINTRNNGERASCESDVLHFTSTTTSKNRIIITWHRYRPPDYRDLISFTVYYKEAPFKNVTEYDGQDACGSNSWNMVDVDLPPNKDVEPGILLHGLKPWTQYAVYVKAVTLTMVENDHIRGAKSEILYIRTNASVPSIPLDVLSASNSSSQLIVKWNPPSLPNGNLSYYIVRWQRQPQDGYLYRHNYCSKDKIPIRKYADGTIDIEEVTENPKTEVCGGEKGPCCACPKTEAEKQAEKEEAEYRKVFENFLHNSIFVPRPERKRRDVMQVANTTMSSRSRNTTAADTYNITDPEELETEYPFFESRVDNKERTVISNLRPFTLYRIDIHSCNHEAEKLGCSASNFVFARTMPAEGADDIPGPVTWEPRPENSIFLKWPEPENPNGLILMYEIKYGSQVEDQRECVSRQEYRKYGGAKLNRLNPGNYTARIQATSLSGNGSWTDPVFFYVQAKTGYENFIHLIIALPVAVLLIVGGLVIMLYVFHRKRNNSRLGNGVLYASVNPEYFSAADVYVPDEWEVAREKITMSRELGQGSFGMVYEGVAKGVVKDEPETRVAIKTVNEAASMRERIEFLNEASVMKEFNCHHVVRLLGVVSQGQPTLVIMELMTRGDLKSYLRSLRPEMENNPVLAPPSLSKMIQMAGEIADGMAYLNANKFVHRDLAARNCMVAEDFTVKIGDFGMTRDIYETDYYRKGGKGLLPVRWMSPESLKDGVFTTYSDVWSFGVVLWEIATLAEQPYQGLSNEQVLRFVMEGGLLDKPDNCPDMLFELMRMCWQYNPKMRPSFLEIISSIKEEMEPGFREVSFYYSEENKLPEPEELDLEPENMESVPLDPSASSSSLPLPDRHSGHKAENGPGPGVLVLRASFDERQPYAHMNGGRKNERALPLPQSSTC

## CSc1ncnc2c1ccn2C1O[C@H](COP(=O)(O)O)[C@@H](O)[C@H]1O (stereo partly drawn) [INT2-31, 4-(Methylthio)-7-(5-O-phosphono-D-ribofuranosyl)-{7H-Pyrrolo[2,3-d]pyrimidine}]
[1]
  IC50: 22.1 µM
[2]
  melanoma tumor regression: caused melanoma tumor regression
[3]
  kinase activity of IGF-1R: did not inhibit
[4]
  IC50: 30 nM
[5]
  induction of apoptosis, Hoescht positive cells: greater than 50%
[6]
  IC50: 16.9 µM
[7]
  IC50: 2390 nM
